In patent publication US20220370463A1, “STABILIZED C-FMS INTRACELLULAR FRAGMENTS (FICD) PROMOTE OSTEOCLAST DIFFERENTIATION AND ARTHRITIC BONE EROSION” (New York Society for the Relief of the Ruptured and …, priority 2019, published 2022):

Columns and labels:
[1] = tested on: FICDs (c-FMS intracellular fragments); assay: FICD generation in M-CSF-cultured human CD14+ cells, immunoblot of whole lysates; format: cell-based; details: MDL28170 treatment
Protocol: FIGS. 8A-8I show c-FMS expression in synovial macrophages. (A) The levels of M-CSF in synovial fluids from patients with rheumatoid arthritis (RA, n=13) and osteoarthritis (OA, n=8) were measured. (B) Mass spectrometry analysis for proteins from ˜50 kDa bands (red box) identified c-FMS as one of top genes. An image of coomassie blue stained genes showing immunoprecipitated cells lysates with either anti-DDK-tag antibodies or IgG control. (C-G) Human CD14+ cells were cultured with M-CSF (20ng/ml). Immunoblot of c-FMS with different antibodies against C-terminal of c-FMS; (C) C-20, (D) D-8, and (E) #3152. Immunoblot of c-FMS with different antibodies against N-terminal of c-FMS; (F) #61701, (G) H-300. (H-I) Human CD14+ cells were cultured with M-CSF (20 ng/ml) for 8 hours to induce early signals, and then BB94 (10 uM) was added for 2 days. (H) Immunoblot with anti c-FMS and α-tubulin antibodies in whole lysates (n=3). (I) Soluble c-FMS was detected by ELISA (n=3). […] All data are shown as mean±SEM. *; p<0.05 significant by two-tailed, paired t-test (A and I). M: mature form, I: immature form, H: hgh mass, L: low mass.
FIGS. 10A-10F show calpain regulates FICD generation. (A and B) Human CD14+ cells were cultured with M-CSF (20 ng/ml) for 8 hours to induce early signals and then (A) MDL 28170(0, 1, 2, 5 uM) or (B) PD150606 (0, 2, 5 uM) was added for 2 days. […]

[2] = tested on: L-FICD generation; assay: Screening of 53 protease inhibitors from a protease library for L-FICD generation; format: cell-based
Text: To identify the protease(s) responsible for cleavage of H-FICD in an unbiased manner, we performed a screening of 53 protease inhibitors using a protease library. The best hits associated with the inhibition of L-FICD generation were MDL28170 and PD150606—two calpain inhibitors—along with MMP inhibitors and γ-secretase inhibitors. Calpain is the family of calcium-dependent cytosolic cysteine proteases expressed ubiquitously in mammals and many other organisms (Pfaff, M., Du, X. & Ginsberg, M. H. Calpain cleavage of integrin beta cytoplasmic domains. FEBS Lett 460, 17-22 (1999)), and calpain-dependent cleavages contribute to modulating various cellular functions such as apoptosis, proliferation and migration (Deshpande, R. V. et al. Calpain expression in lymphoid cells. Increased mRNA and protein levels after cell activation. J Biol Chem 270, 2497-2505 (1995). Svensson, L. et al. Calpain 2 controls turnover of LFA-1 adhesions on migrating T lymphocytes. PloS one 5, e15090, doi:10.1371/journal.pone.0015090 (2010).). […] Since calpain is activated by calcium, we examined if calcium signaling could compensate for M-CSF signaling to generate FICDs. In the absence of c-FMS signaling, calcium signaling was able to promote the cleavage of […] in the nucleus, and […] reversed the effect of calcium signaling on L-FICD processing (FIG.10C). […]

## MDL28170
[1]
  L-FICD: decreased
[2]
  inhibition of L-FICD generation (hit in screening): best hits
